Holding throughout (type): in vivo
Assay [1] has as its system pigweed (Amaranthus retroflexus). Kind of assay: Test A preemergence. The conditions noted are these: Amaranthus retroflexus, pre-emergence, 240 h; for pest or weed control at 125 g/ha: 125 g ai/ha; for pest or weed control at 500 g/ha: 500 g ai/ha.
The subject of assay [2] is Galium (catchweed bedstraw, Galium aparine). Kind of assay: Test A postemergence. The note with it: Galium, post-emergence, 240 h, postemergence; for pest or weed control at 125 g/ha: 125 g ai/ha. An outline of the steps: (§1)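 Visual injury, scored on a 0–100 scale relative to untreated controls, was recorded about 10 d after application. Treatments were a preemergence soil spray over planted seeds or a postemergence spray on plants at the one- to two-leaf stage, 2 to 10 cm tall, all in loam soil–sand blend in the greenhouse.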

For assay [3], the system named is Kochia (Kochia scoparia). Kind of assay: Test A postemergence. The note with it: Bassia scoparia, post-emergence, 240 h, postemergence; for pest or weed control at 125 g/ha: 125 g ai/ha. The essentials: as §1
Assay [4] has as its system barnyardgrass (Echinochloa crus-galli). Kind of assay: Test A postemergence. The conditions noted are these: Echinochloa crus-galli, post-emergence, 240 h, postemergence; for pest or weed control at 125 g/ha: 125 g ai/ha. An outline of the steps:
as §1

Assay [5] relates to blackgrass (Alopecurus myosuroides). In words: Test A postemergence. The conditions noted are these: Alopecurus myosuroides, post-emergence, 240 h, postemergence; for pest or weed control at 125 g/ha: 125 g ai/ha. An outline of the steps: as §1
The test system of assay [6] is corn (Zea mays). In words: Test A postemergence. The conditions noted are these: Zea mays, post-emergence, 240 h, postemergence; for plant injury at 125 g/ha: 125 g ai/ha. An outline of the steps:
as §1

Assay [7] concerns giant foxtail (Setaria faberii). In words: Test A postemergence. The conditions noted are these: Setaria faberi, post-emergence, 240 h, postemergence; for pest or weed control at 125 g/ha: 125 g ai/ha. The essentials:
as §1

For assay [8], the system named is pigweed (Amaranthus retroflexus). In words: Test A postemergence. The note with it: Amaranthus retroflexus, post-emergence, 240 h, postemergence; for pest or weed control at 125 g/ha: 125 g ai/ha. An outline of the steps: as §1
Assay [9] deals with ragweed (common ragweed, Ambrosia elatior). In words: Test A postemergence. The conditions noted are these: Ambrosia artemisiifolia, post-emergence, 240 h, postemergence; for pest or weed control at 125 g/ha: 125 g ai/ha. An outline of the steps:
as §1

Assay [10] deals with ryegrass, Italian (Italian ryegrass, Lolium multiflorum). Kind of assay: Test A postemergence. The conditions noted are these: Lolium multiflorum, post-emergence, 240 h, postemergence; for pest or weed control at 125 g/ha: 125 g ai/ha. The essentials: as §1
Assay [11] concerns wheat (Triticum aestivum). Kind of assay: Test A postemergence. The conditions noted are these: Triticum aestivum, post-emergence, 240 h, postemergence; for plant injury at 125 g/ha: 125 g ai/ha. An outline of the steps: as §1
Assay [12] concerns barnyardgrass (Echinochloa crus-galli). Kind of assay: Test B flooded paddy test. The note with it: Echinochloa crus-galli, Flood, 250 g ai/ha, read-out: Barnyardgrass plant response rating. An outline of the steps: (§2)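 Visual ratings (0 none to 100 complete control) are relative to untreated plants, taken 13–15 d after treatment in a greenhouse. Test material went straight into floodwater standing 3 cm above the soil, kept constant, on plants at the 2-leaf stage.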

Assay [13] concerns ducksalad (Heteranthera limosa). Kind of assay: Test B flooded paddy test. The conditions noted are these: Heteranthera limosa, Flood, 250 g ai/ha, read-out: Ducksalad plant response rating. An outline of the steps: as §2
Assay [14] concerns rice (Oryra sativa). Kind of assay: Test B flooded paddy test. The note with it: Oryza sativa, Flood, 250 g ai/ha, read-out: Rice plant response rating. The essentials:
as §2

For assay [15], the system named is sedge, umbrella (small-flower umbrella sedge, Cyperus difformis). Kind of assay: Test B flooded paddy test. The conditions noted are these: Cyperus difformis, Flood, 250 g ai/ha, read-out: Sedge, Umbrella plant response rating. The essentials: as §2
The mark [16] stands for this setting: preemergence, 0 to 100 scale where 0 is no effect and 100 is complete control, read-out: Pigweed plant response rating.
[17] abbreviates: Preemergence, visual injury vs untreated controls after approximately 10 d, read-out: Pigweed plant response rating (0 to 100 scale where 0 is no effect and 100 is complete control).
The mark [18] stands for this setting: visual injury rating after approximately 10 d, read-out: Galium plant response rating (0 to 100 scale, 0 no effect, 100 complete control).
Where [19] appears, read: visual injury rating after approximately 10 d, read-out: Kochia plant response rating (0 to 100 scale, 0 no effect, 100 complete control).
[20] abbreviates: visual injury rating after approximately 10 d, read-out: Barnyardgrass plant response rating (0 to 100 scale, 0 no effect, 100 complete control).
Setting [21] is: visual injury rating after approximately 10 d, read-out: Blackgrass plant response rating (0 to 100 scale, 0 no effect, 100 complete control).
The mark [22] stands for this setting: visual injury rating after approximately 10 d, read-out: Corn plant response rating (0 to 100 scale, 0 no effect, 100 complete control).
[23] abbreviates: visual injury rating after approximately 10 d, read-out: Foxtail, Giant plant response rating (0 to 100 scale, 0 no effect, 100 complete control).
[24] abbreviates: visual injury rating after approximately 10 d, read-out: Pigweed plant response rating (0 to 100 scale, 0 no effect, 100 complete control).
[25] abbreviates: visual injury rating after approximately 10 d, read-out: Ragweed plant response rating (0 to 100 scale, 0 no effect, 100 complete control).
Setting [26] is: visual injury rating after approximately 10 d, read-out: Ryegrass, Italian plant response rating (0 to 100 scale, 0 no effect, 100 complete control).
Where [27] appears, read: visual injury rating after approximately 10 d, read-out: Wheat plant response rating (0 to 100 scale, 0 no effect, 100 complete control).
Where [28] appears, read: scale of 0 to 100 where 0 is no effect and 100 is complete control.
Setting [29] is: 0 to 100 scale where 0 is no effect and 100 is complete control.

These results are taken from patent US12077503B2, “Substituted cyclic amides and their use as herbicides” (FMC CORPORATION, priority 2015, dated 2024).

Read-outs that look alike come from different tables or passages of the source.

In the case of `Cc1cc(C)cc([C@H]2CN(C)C(=O)[C@@H]2C(=O)Nc2ccccc2C(F)(F)F)c1` [Compound 912], the pest or weed control at 125 g/ha in [1] (setting [16]) came to 0%; in assay [2] (setting [18]) it was 0%; in assay [3] (setting [19]), 0%; in [4] (setting [20]), 80%; in assay [5] (setting [21]) it was 30%; in assay [7] (setting [23]), 90%. The pest or weed control at 125 g/ha turned out to be 0% in [8] (setting [24]), 0% in assay [9] (setting [25]) and 20% in assay [10] (setting [26]). The pest or weed control at 500 g/ha in assay [1] (setting [17]) was 0%. Also, the plant injury at 125 g/ha came out at 30% in assay [6] (setting [22]) and 20% in assay [11] (setting [27]). The pest or weed control at 250 g/ha in assay [12] (setting [28]) amounted to 50%; in assay [13] (setting [28]) it was 50%; in assay [14] (setting [28]) it was 0%; in assay [15] (setting [28]) it was 0%.

Regarding `CN1C[C@H](c2cscn2)[C@@H](C(=O)Nc2cccc(F)c2F)C1=O` [Compound 1113], the pest or weed control at 125 g/ha in [1] (preemergence, 0 to 100 scale where 0 is no effect and 100 is complete control, approx. 10 d, read-out: Pigweed plant response rating) was 0%; in assay [2] (visual injury on 0 to 100 scale (0 no effect, 100 complete control), approx. 10 d, read-out: Galium plant response rating), 0%; in assay [3] (visual injury on 0 to 100 scale (0 no effect, 100 complete control), approx. 10 d, read-out: Kochia plant response rating), 0%; in assay [4] (visual injury on 0 to 100 scale (0 no effect, 100 complete control), approx. 10 d, read-out: Barnyardgrass plant response rating), 0%; in [5] (visual injury on 0 to 100 scale (0 no effect, 100 complete control), approx. 10 d, read-out: Blackgrass plant response rating), 0%; in assay [7] (visual injury on 0 to 100 scale (0 no effect, 100 complete control), approx. 10 d, read-out: Foxtail, Giant plant response rating) it was 0%. Besides, the pest or weed control at 125 g/ha was 0% in [8] (visual injury on 0 to 100 scale (0 no effect, 100 complete control), approx. 10 d, read-out: Pigweed plant response rating); 0% in assay [9] (visual injury on 0 to 100 scale (0 no effect, 100 complete control), approx. 10 d, read-out: Ragweed plant response rating); 0% in assay [10] (visual injury on 0 to 100 scale (0 no effect, 100 complete control), approx. 10 d, read-out: Ryegrass, Italian plant response rating). In addition, the pest or weed control at 500 g/ha in [1] (setting [16]) came to 0%; in [2] (500 g ai/ha, 0 to 100 scale, 0 is no effect, 100 is complete control, read-out: Galium plant response rating), 0%; in assay [3] (500 g ai/ha, 0 to 100 scale, 0 is no effect, 100 is complete control, read-out: Kochia plant response rating), 0%; in [4] (500 g ai/ha, 0 to 100 scale, 0 is no effect, 100 is complete control, read-out: Barnyardgrass plant response rating), 0%; in [5] (500 g ai/ha, 0 to 100 scale, 0 is no effect, 100 is complete control, read-out: Blackgrass plant response rating), 0%; in assay [7] (500 g ai/ha, 0 to 100 scale, 0 is no effect, 100 is complete control, read-out: Foxtail, Giant plant response rating), 0%. Moreover, the pest or weed control at 500 g/ha in assay [8] (500 g ai/ha, 0 to 100 scale, 0 is no effect, 100 is complete control, read-out: Pigweed plant response rating) stood at 0%; in assay [9] (500 g ai/ha, 0 to 100 scale, 0 is no effect, 100 is complete control, read-out: Ragweed plant response rating) it was 0%; in [10] (500 g ai/ha, 0 to 100 scale, 0 is no effect, 100 is complete control, read-out: Ryegrass, Italian plant response rating), 0%. Moreover, the plant injury at 125 g/ha was determined as 0% in assay [6] (visual injury on 0 to 100 scale (0 no effect, 100 complete control), approx. 10 d, read-out: Corn plant response rating) and 0% in assay [11] (visual injury on 0 to 100 scale (0 no effect, 100 complete control), approx. 10 d, read-out: Wheat plant response rating). The plant injury at 500 g/ha was found to be 0% in [6] (500 g ai/ha, 0 to 100 scale, 0 is no effect, 100 is complete control, read-out: Corn plant response rating) and 0% in [11] (500 g ai/ha, 0 to 100 scale, 0 is no effect, 100 is complete control, read-out: Wheat plant response rating). Also, the pest or weed control at 250 g/ha amounted to 0% in assay [12] (setting [29]), 30% in assay [13] (setting [29]), 20% in [14] (setting [29]) and 0% in assay [15] (setting [29]).

For the compound `Cc1c(F)cccc1NC(=O)[C@H]1C(=O)NC[C@@H]1c1cccc(C(F)(F)F)c1` [Compound 826], the pest or weed control at 125 g/ha in [1] (setting [16]) is 0%; in assay [2] (setting [18]), 50%; in assay [3] (setting [19]), 30%; in assay [4] (setting [20]) it was 100%; in assay [5] (setting [21]), 80%; in assay [7] (setting [23]) it was 90%. Besides, the figures for the pest or weed control at 125 g/ha in assay [8] (setting [24]), in assay [9] (setting [25]) and in [10] (setting [26]) were 30%, 50% and 60%, respectively. The pest or weed control at 500 g/ha in [1] (setting [17]) came to 60%. The plant injury at 125 g/ha in [6] (setting [22]) came out at 80%; in assay [11] (setting [27]) it was 60%. The pest or weed control at 250 g/ha came out at 65% in assay [12] (setting [28]), 100% in assay [13] (setting [28]), 0% in assay [14] (setting [28]) and 0% in [15] (setting [28]).
